Values of other authors, collected in article PMC7751758, “Repurposing Sigma-1 Receptor Ligands for COVID-19 Therapy?” (Frontiers in Pharmacology, 2020).
pIC50, pKi: −log10 of the molar value. Several values for one entry are separate records, joined by “and”; a condition that tells them apart may be missing. Equal entries are not always repeated. Entries after “also recorded” stand apart in the source; their conditions may differ.

How the values were obtained:
[1] = test system: EBOV
[2] = test system: MERS-CoV
[3] = test system: SARS-CoV
[4] = biological target: Sigma-1 receptor; conditions: for pIC50: read-out: Sigma-1 receptor affinity IC50; for pKi: read-out: Sigma-1 receptor affinity Ki
[5] = test system: HCV infection of human hepatocarcinoma Huh-7 cells; conditions: absence of cytotoxicity at low micromolar and submicromolar concentrations; ref Gastaminza et al., 2010
[6] = test system: HCV infection; conditions: without significantly reducing cell biomass; ref Mingorance et al., 2014
[7] = test system: Ebola virus (EBOV)
[8] = test system: HCV-induced cytopathic effect on the engineered cell line n4mBid; conditions: leads of the cell protection screen; ref Chockalingam et al., 2010

Cl.Cl.OCCN1CCN(CCC=C2c3ccccc3Sc3ccc(C(F)(F)F)cc32)CC1 (mixture of isomers) [Flupentixol]
Antiviral activity: Virus [1]: active

CCN(CC)Cc1cc(Nc2ccnc3cc(Cl)ccc23)ccc1O [Amodiaquine]
Antiviral activity: Virus [2]: in vitro activity | Antiviral activity: Virus [3]: in vitro activity | pIC50 [4]: 6.45

COc1ccc(CCN2CCC(Nc3nc4ccccc4n3Cc3ccc(F)cc3)CC2)cc1 [Astemizole]
Antiviral activity: Virus [1]: active | Antiviral activity: Virus [2]: in vitro activity | Antiviral activity: Virus [3]: in vitro activity

CN1CCCC(n2nc(Cc3ccc(Cl)cc3)c3ccccc3c2=O)CC1 (stereo not drawn) [Azelastine]
reduction in HCV infection of Huh-7 cells, as compared to the vehicle DMSO control [5]: > 85% | pIC50 [4]: 6.56

CC(COc1ccccc1Cc1ccccc1)N1CCCCC1 (stereo not drawn) [Benproperine]
reduction in HCV infection of Huh-7 cells, as compared to the vehicle DMSO control [5]: > 85% | pIC50 [4]: 7.72

CN1[C@@H]2CC[C@H]1C[C@@H](OC(c1ccccc1)c1ccccc1)C2 [Benztropine]
Antiviral activity: Virus [1]: active | reduction of HCV infection [6]: more than one order of magnitude | cellular toxicity [7]: < 30% | viral inhibition [7]: > 50% | Antiviral activity: Virus [2]: in vitro activity | Antiviral activity: Virus [3]: in vitro activity; also recorded: SARS-CoV SARS-CoV-2

CN1CCN(c2nc3cc(C(F)(F)F)ccc3n3cccc23)CC1.O=C(O)/C=C\C(=O)O.O=C(O)/C=C\C(=O)O [CGS 12066B]
reduction in HCV infection of Huh-7 cells, as compared to the vehicle DMSO control [5]: > 85% | pIC50 [4]: 5.93

COc1ccccc1OCCNCC(O)COc1cccc2[nH]c3ccccc3c12 (stereo not drawn) [Carvedilol]
reduction in HCV infection of Huh-7 cells, as compared to the vehicle DMSO control [5]: > 85% | pIC50 [4]: 5.80

CN(C)CCOC(C)(c1ccccc1)c1ccc(Cl)cc1 (stereo not drawn) [Chlorphenoxamine]
Antiviral activity: Virus [2]: in vitro activity | Antiviral activity: Virus [3]: in vitro activity | pIC50 [4]: 5.75

NC(=NCc1ccc(Cl)cc1)SCCCc1cnc[nH]1 [Clobenpropit]
reduction in HCV infection of Huh-7 cells, as compared to the vehicle DMSO control [5]: > 85% | pIC50 [4]: 5.97

CCN(CC)CCOc1ccc(C(=C(Cl)c2ccccc2)c2ccccc2)cc1 [Clomiphene]
Antiviral activity: Virus [1]: active | reduction of HCV infection [6]: more than one order of magnitude | cellular toxicity [7]: < 30% | viral inhibition [7]: > 50%

CN(C)CCCN1c2ccccc2CCc2ccc(Cl)cc21 [Clomipramine]
Antiviral activity: Virus [1]: active | reduction of HCV infection [6]: more than one order of magnitude | Antiviral activity: Virus [2]: in vitro activity | Antiviral activity: Virus [3]: in vitro activity; also recorded: SARS-CoV SARS-CoV-2

Clc1ccc(C(OCCN2CCCCC2)c2ccccc2)cc1 (stereo not drawn) [Cloperastine]
pIC50 [4]: 6.56 | pKi [4]: 7.70

C[C@@H]1C[C@@H]([C@H](O)CC2CC(=O)NC(=O)C2)C(=O)[C@@H](C)C1 [Cycloheximide]
Antiviral activity: Virus [2]: in vitro activity | Antiviral activity: Virus [3]: in vitro activity | pIC50 [4]: 5.99

CN1CCC(=C2c3ccccc3C=Cc3ccccc32)CC1 [Cyproheptadine]
reduction in HCV infection of Huh-7 cells, as compared to the vehicle DMSO control [5]: > 85%

CNCCCN1c2ccccc2CCc2ccccc21 [Desipramine]
reduction of HCV infection [6]: more than one order of magnitude | pIC50 [4]: 5.92 | pKi [4]: 5.70

Clc1ccc2c(c1)CCc1cccnc1C2=C1CCNCC1 [Desloratadine]
reduction in HCV infection of Huh-7 cells, as compared to the vehicle DMSO control [5]: > 85%

CNCCC(Oc1ccc(C(F)(F)F)cc1)c1ccccc1 (stereo not drawn) [Fluoxetine]
reduction of HCV infection [6]: more than one order of magnitude

OCCN1CCN(CCCN2c3ccccc3Sc3ccc(C(F)(F)F)cc32)CC1 [Fluphenazine]
Antiviral activity: Virus [1]: active | reduction in HCV infection of Huh-7 cells, as compared to the vehicle DMSO control [5]: > 85% | Antiviral activity: Virus [2]: in vitro activity | Antiviral activity: Virus [3]: in vitro activity; also recorded: SARS-CoV SARS-CoV-2

O=C1NCN(c2ccccc2)C12CCN(CCCC(c1ccc(F)cc1)c1ccc(F)cc1)CC2 [Fluspirilene]
Antiviral activity: Virus [2]: in vitro activity | Antiviral activity: Virus [3]: in vitro activity | pIC50 [4]: 6.42 and 6.25 | pKi [4]: 6.82

OCCOCCN1CCN(C(c2ccccc2)c2ccc(Cl)cc2)CC1 (stereo not drawn) [Hydroxyzine]
reduction of HCV infection [6]: more than one order of magnitude | pIC50 [4]: 6.47 | pKi [4]: 7.34

CN(C)CCCN1c2ccccc2CCc2ccccc21 [Imipramine]
reduction of HCV infection [6]: more than one order of magnitude | pIC50 [4]: 6.28 | pKi [4]: 6.46

CNC1CC(c2ccc(Cl)c(Cl)c2)c2ccccc21 (stereo not drawn) [Indatraline]
reduction in HCV infection of Huh-7 cells, as compared to the vehicle DMSO control [5]: > 85% | pIC50 [4]: 6.13

CN1CCC(=C2c3ccccc3CC(=O)c3sccc32)CC1 [Ketotifen]
reduction in HCV infection of Huh-7 cells, as compared to the vehicle DMSO control [5]: > 85% | pIC50 [4]: 5.42

CN(CCCN1c2ccccc2CCc2ccccc21)CC(=O)c1ccc(Cl)cc1 [Lofepramine]
reduction in HCV infection of Huh-7 cells, as compared to the vehicle DMSO control [5]: > 85% | Sigma-1 receptor affinity, inhibition ([4]; at 10 µM): 100% inh. at 10 µM | pKi [4]: 5.60

COc1ccc(CN2CCN(C(c3ccc(F)cc3)c3ccc(F)cc3)CC2)c(OC)c1OC [Lomerizine]
Antiviral activity: Virus [1]: active | pIC50 [4]: 7.43

CNCCCC12CCC(c3ccccc31)c1ccccc12 [Maprotiline]
Antiviral activity: Virus [1]: active

OC(c1cc(C(F)(F)F)nc2c(C(F)(F)F)cccc12)C1CCCCN1 (stereo not drawn) [Mefloquine]
Antiviral activity: Virus [2]: in vitro activity | Antiviral activity: Virus [3]: in vitro activity | pIC50 [4]: 5.59

CC(=O)c1ccc2c(c1)N(CCCN1CCC(CCO)CC1)c1ccccc1S2 [Piperacetazine]
Antiviral activity: Virus [1]: active | pIC50 [4]: 6.08

CC(=O)[C@H]1CC[C@H]2[C@@H]3CCC4=CC(=O)CC[C@]4(C)[C@H]3CC[C@]12C [Progesterone]
pIC50 [4]: 5.71 | pKi [4]: 6.71 to 6.76 and 6.47 to 6.59

CNCCCC1c2ccccc2C=Cc2ccccc21 [Protriptyline]
alleviation of HCV-induced cytopathic effect (n4mBid cell viability relative to untreated cells) [8]: increase n4mBid cell viability | pIC50 [4]: 6.51

CCN(CC)CCCC(C)Nc1c2ccc(Cl)cc2nc2ccc(OC)cc12 (stereo not drawn) [Quinacrine]
Antiviral activity: Virus [1]: active | pIC50 [4]: 6.02

O=[N+]([O-])c1ccc2nc(N3CCNCC3)ccc2c1 [Quipazine-6N]
alleviation of HCV-induced cytopathic effect (n4mBid cell viability relative to untreated cells) [8]: increase n4mBid cell viability | pIC50 [4]: 5.90

O=C(c1ccc(OCCN2CCCCC2)cc1)c1c(-c2ccc(O)cc2)sc2cc(O)ccc12 [Raloxifene]
alleviation of HCV-induced cytopathic effect (n4mBid cell viability relative to untreated cells) [8]: increase n4mBid cell viability | reduction of HCV infection [6]: more than one order of magnitude | pIC50 [4]: 6.91 | pKi [4]: 7.42

C[C@@H]1CN(CCCn2c3ccccc3c3ccccc32)C[C@H](C)N1 [Rimcazole, 9-[3-(cis-3,5-Dimethyl-1-piperazinyl)-propyl]carbazole]
reduction in HCV infection of Huh-7 cells, as compared to the vehicle DMSO control [5]: > 85% | pIC50 [4]: […] | pKi [4]: […]

Cc1nc2sccn2c(=O)c1CCN1CCC(=C(c2ccc(F)cc2)c2ccc(F)cc2)CC1 [Ritanserin]
alleviation of HCV-induced cytopathic effect (n4mBid cell viability relative to untreated cells) [8]: increase n4mBid cell viability | pIC50 [4]: 6.72

Oc1cc2c(cc1O)C(c1ccccc1)CNCC2 (stereo not drawn) [SKF-38393]
alleviation of HCV-induced cytopathic effect (n4mBid cell viability relative to untreated cells) [8]: increase n4mBid cell viability

OCc1cc(C(O)CNCCCCCCOCCCCc2ccccc2)ccc1O (stereo not drawn) [Salmeterol]
reduction in HCV infection of Huh-7 cells, as compared to the vehicle DMSO control [5]: > 85% | pIC50 [4]: 6.82

Fc1ccc(-n2cc(CCCCN3CCC4(CC3)OCc3ccccc34)c3ccccc32)cc1 [Siramesine]
pIC50 [4]: 7.77

CC/C(=C(\c1ccccc1)c1ccc(OCCN(C)C)cc1)c1ccccc1 [Tamoxifen]
reduction of HCV infection [6]: more than one order of magnitude | Antiviral activity: Virus [2]: in vitro activity | Antiviral activity: Virus [3]: in vitro activity; also recorded: SARS-CoV SARS-CoV-2

CC(C)N1CCN(c2ccc(OCC3COC(Cn4cncn4)(c4ccc(Cl)cc4Cl)O3)cc2)CC1 (stereo not drawn) [Terconazole]
Antiviral activity: Virus [1]: active | Antiviral activity: Virus [2]: in vitro activity | Antiviral activity: Virus [3]: in vitro activity; also recorded: SARS-CoV SARS-CoV-2 | pIC50 [4]: 6.80

CN1CCN(CC/C=C2/c3ccccc3Sc3ccc(S(=O)(=O)N(C)C)cc32)CC1 [Thiothixene]
Antiviral activity: Virus [2]: in vitro activity | Antiviral activity: Virus [3]: in vitro activity | pIC50 [4]: 6.45

CN(C)CCOc1ccc(/C(=C(/CCCl)c2ccccc2)c2ccccc2)cc1 [Toremifene]
Antiviral activity: Virus [1]: active | reduction in HCV infection of Huh-7 cells, as compared to the vehicle DMSO control [5]: > 85% | Antiviral activity: Virus [2]: in vitro activity | Antiviral activity: Virus [3]: in vitro activity; also recorded: SARS-CoV SARS-CoV-2 | pIC50 [4]: 6.66

CN(C)CCCN1c2ccccc2Sc2ccc(C(F)(F)F)cc21 [Triflupromazine]
alleviation of HCV-induced cytopathic effect (n4mBid cell viability relative to untreated cells) [8]: increase n4mBid cell viability | Antiviral activity: Virus [2]: in vitro activity | Antiviral activity: Virus [3]: in vitro activity | pIC50 [4]: 6.33 and 6.22 | pKi [4]: 6.81

OC(CCN1CCCCC1)(c1ccccc1)C1CC2C=CC1C2 (stereo not drawn) [biperiden]
alleviation of HCV-induced cytopathic effect (n4mBid cell viability relative to untreated cells) [8]: increase n4mBid cell viability

CC(C)(C)[C@]1(O)CCN2C[C@H]3c4ccccc4CCc4cccc(c43)[C@@H]2C1 [butaclamol]
alleviation of HCV-induced cytopathic effect (n4mBid cell viability relative to untreated cells) [8]: increase n4mBid cell viability

Cc1cc2c(s1)Nc1ccccc1N=C2N1CCN(C)CC1 [olanzapine]
Sig-1R activity [4]: no significant Sig-1R activity

(±)-Butaclamol
pIC50 [4]: 6.46

(−)-Butaclamol
pIC50 [4]: 6.74
